Measurements as given in patent publication US8614327B2 (Vertex Pharmaceuticals Incorporated, priority 2004, dated 2013).

Biological target: T1, ΔF508-CFTR (Homo sapiens, UniProt P13569, DEL508-508)
T1 construct: expressed in transfected cells
Experiment: Membrane potential optical (FRET/VIPR) assay, identification of potentiator compounds
Assay type: cell-based
Conditions: Table 3, assay not given; for % Activity: relative efficacy
Summary of the method: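 NIH3T3 mouse fibroblasts stably expressing ΔF508-CFTR, temperature-corrected 24 h at 27° C., read on VIPR by FRET between CC2-DMPE and DiSBAC2(3). Potentiators identified in a double-addition format, first adding chloride-free (gluconate) medium with or without compound.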

T1 sequence (P13569 with tags, fused parts or gaps DEL508-508): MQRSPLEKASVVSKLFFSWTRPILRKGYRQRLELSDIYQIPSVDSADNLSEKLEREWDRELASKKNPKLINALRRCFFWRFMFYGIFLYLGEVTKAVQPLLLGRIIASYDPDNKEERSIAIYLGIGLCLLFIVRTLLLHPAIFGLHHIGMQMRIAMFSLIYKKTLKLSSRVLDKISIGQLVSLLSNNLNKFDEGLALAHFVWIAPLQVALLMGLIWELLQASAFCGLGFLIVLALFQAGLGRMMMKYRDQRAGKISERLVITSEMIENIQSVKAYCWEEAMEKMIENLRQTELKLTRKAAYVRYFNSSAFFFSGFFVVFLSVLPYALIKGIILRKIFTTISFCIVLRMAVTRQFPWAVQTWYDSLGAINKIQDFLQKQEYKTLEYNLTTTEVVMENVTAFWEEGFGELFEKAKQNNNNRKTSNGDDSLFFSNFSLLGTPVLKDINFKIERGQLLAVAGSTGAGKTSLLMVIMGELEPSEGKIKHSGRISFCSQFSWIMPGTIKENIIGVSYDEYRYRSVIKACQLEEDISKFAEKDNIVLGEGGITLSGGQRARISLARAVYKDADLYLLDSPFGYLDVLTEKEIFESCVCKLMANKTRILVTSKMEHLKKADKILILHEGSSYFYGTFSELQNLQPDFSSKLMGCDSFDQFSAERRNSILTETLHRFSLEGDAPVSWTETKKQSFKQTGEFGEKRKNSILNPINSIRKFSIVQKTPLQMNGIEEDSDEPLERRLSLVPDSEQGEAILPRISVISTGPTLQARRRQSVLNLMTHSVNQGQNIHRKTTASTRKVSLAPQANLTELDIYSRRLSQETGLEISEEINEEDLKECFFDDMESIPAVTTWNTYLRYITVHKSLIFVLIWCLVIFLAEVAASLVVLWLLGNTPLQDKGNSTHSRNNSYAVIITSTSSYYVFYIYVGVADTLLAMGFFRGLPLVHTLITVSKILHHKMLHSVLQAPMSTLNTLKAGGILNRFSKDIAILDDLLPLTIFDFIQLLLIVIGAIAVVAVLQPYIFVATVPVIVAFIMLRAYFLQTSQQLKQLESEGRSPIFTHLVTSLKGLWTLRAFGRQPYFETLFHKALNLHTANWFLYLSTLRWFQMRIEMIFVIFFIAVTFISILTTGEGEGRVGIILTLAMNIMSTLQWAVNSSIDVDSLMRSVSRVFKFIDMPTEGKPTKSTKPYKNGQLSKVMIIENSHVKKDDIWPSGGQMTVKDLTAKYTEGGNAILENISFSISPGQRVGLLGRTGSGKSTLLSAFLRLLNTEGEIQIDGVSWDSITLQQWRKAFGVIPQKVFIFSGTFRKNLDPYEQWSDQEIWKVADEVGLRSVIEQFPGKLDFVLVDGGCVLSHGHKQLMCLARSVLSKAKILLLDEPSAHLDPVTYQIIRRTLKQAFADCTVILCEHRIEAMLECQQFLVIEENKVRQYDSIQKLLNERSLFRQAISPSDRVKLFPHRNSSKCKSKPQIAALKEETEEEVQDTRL

| SMILES | EC50 [µM] | % Activity |
| --- | --- | --- |
| O=C(Nc1cccc(S(=O)(=O)N2CCCCC2)c1)c1c[nH]c2ccccc2c1=O [Compound 442, 4-oxo-N-[3-(1-piperidylsulfonyl)phenyl]-1H-quinoline-3-carboxamide] | 25 to 60 | + (<25%) |
| O=C(Nc1cccnc1Oc1ccc(F)cc1F)c1c[nH]c2ccccc2c1=O [Compound 385, N-[2-(2,4-difluorophenoxy)-3-pyridyl]-4-oxo-1H-quinoline-3-carboxamide] |  | ++ (between 25% to 100%) |
| O=C(Nc1cccc(S(=O)(=O)N2CCOCC2)c1)c1c[nH]c2ccccc2c1=O [Compound 185, N-(3-morpholinosulfonylphenyl)-4-oxo-1H-quinoline-3-carboxamide] | 25 to 60 | + (<25%) |
| COc1ccc(NC(=O)c2c[nH]c3ccccc3c2=O)c(OC)n1 [Compound 193, N-(2,6-dimethoxy-3-pyridyl)-4-oxo-1H-quinoline-3-carboxamide] | 10 to 25 | ++ (between 25% to 100%) |
| CCCc1ccc(NC(=O)c2c[nH]c3ccccc3c2=O)cc1N(C)C [Compound 462, N-(3-dimethylamino-4-propyl-phenyl)-4-oxo-1H-quinoline-3-carboxamide] |  | ++ (between 25% to 100%) |
| CC(=O)N1CCc2ccc(NC(=O)c3c[nH]c4ccccc4c3=O)cc2C1 [Compound 303, N-(2-acetyl-1,2,3,4-tetrahydroisoquinolin-7-yl)-4-oxo-1H-quinoline-3-carboxamide] | 10 to 25 | ++ (between 25% to 100%) |
| Cc1ccc(NC(=O)c2c[nH]c3ccccc3c2=O)nc1 [Compound 195, N-(5-methyl-2-pyridyl)-4-oxo-1H-quinoline-3-carboxamide] | 25 to 60 | + (<25%) |
| COCCOC(=O)NCC(C)(C)c1ccc(NC(=O)c2c[nH]c3ccccc3c2=O)cc1 [Compound 28, [2-methyl-2-[4-[(4-oxo-1H-quinolin-3-yl)carbonylamino]phenyl]-propyl]aminoformic acid 2-methoxyethyl ester] | 10 to 25 | ++ (between 25% to 100%) |
| CC(C)(CNC(=O)OCC1CCOC1)c1ccc(NC(=O)c2c[nH]c3ccccc3c2=O)cc1 (centres unmarked) [Compound 396, [2-methyl-2-[4-[(4-oxo-1H-quinolin-3-yl)carbonylamino]phenyl]-propyl]aminoformic acid tetrahydrofuran-3-ylmethyl ester] | 10 to 25 | ++ (between 25% to 100%) |
| Cc1ccc2c(c1)c(=O)c(C(=O)Nc1ccccc1)cn2C [Compound 394, 1,6-dimethyl-4-oxo-N-phenyl-1H-quinoline-3-carboxamide] | 25 to 60 | + (<25%) |
| O=C(Nc1ccccn1)c1c[nH]c2ccccc2c1=O [Compound 155, 4-oxo-N-(2-pyridyl)-1H-quinoline-3-carboxamide] | 25 to 60 | + (<25%) |
| Nc1cccc(NC(=O)c2c[nH]c3ccccc3c2=O)c1 [Compound 431, N-(3-aminophenyl)-4-oxo-1H-quinoline-3-carboxamide] | 10 to 25 | ++ (between 25% to 100%) |
| CCCc1ccc(NC(=O)c2c[nH]c3ccccc3c2=O)cc1 [Compound 226, 4-oxo-N-(4-propylphenyl)-1H-quinoline-3-carboxamide] |  | ++ (between 25% to 100%) |
| Cc1c[nH]c2cccc(NC(=O)c3c[nH]c4ccccc4c3=O)c12 [Compound 338, N-(3-methyl-1H-indol-4-yl)-4-oxo-1H-quinoline-3-carboxamide] | 10 to 25 | ++ (between 25% to 100%) |
| COc1cc(NC(=O)c2c[nH]c3ccc(F)cc3c2=O)cc(C(F)(F)F)c1 [Compound 666, 6-fluoro-N-[3-methoxy-5-(trifluoromethyl)phenyl]-4-oxo-1H-quinoline-3-carboxamide] | < 10 | ++ (between 25% to 100%) |
| CCCCOc1ccccc1NC(=O)c1c[nH]c2ccccc2c1=O [Compound 177, N-(2-butoxyphenyl)-4-oxo-1H-quinoline-3-carboxamide] | < 10 | +++ (>100%) |
| CCc1ccc(NC(=O)c2c[nH]c3ccccc3c2=O)cc1 [Compound 463, N-(4-ethylphenyl)-4-oxo-1H-quinoline-3-carboxamide] |  | ++ (between 25% to 100%) |
| CCCCOC(=O)NCC(C)(C)c1ccc(NC(=O)c2c[nH]c3ccccc3c2=O)cc1 [Compound 460, [2-methyl-2-[4-[(4-oxo-1H-quinolin-3-yl)carbonylamino]phenyl]-propyl]aminoformic acid butyl ester] | < 10 | ++ (between 25% to 100%) |
| O=C(Nc1cc2[nH]ccc2cc1C(=O)N1CCCCC1)c1c[nH]c2ccccc2c1=O [Compound 148, 4-oxo-N-[5-(1-piperidylcarbonyl)-1H-indol-6-yl]-1H-quinoline-3-carboxamide] | < 10 | ++ (between 25% to 100%) |

Further lines, results first:

| EC50 [µM] | % Activity | SMILES |
| --- | --- | --- |
| < 10 | ++ (between 25% to 100%) | CCc1cc(C#N)ccc1NC(=O)c1c[nH]c2ccccc2c1=O [Compound 451, N-(4-cyano-2-ethyl-phenyl)-4-oxo-1H-quinoline-3-carboxamide] |
| < 10 | ++ (between 25% to 100%) | O=C(Nc1ccccc1-c1ccccc1)c1c[nH]c2cc(C(F)(F)F)ccc2c1=O [Compound 469, 4-oxo-N-(2-phenylphenyl)-7-(trifluoromethyl)-1H-quinoline-3-carboxamide] |
| < 10 | ++ (between 25% to 100%) | C[S+]([O-])c1ccc(-c2ccccc2NC(=O)c2c[nH]c3ccccc3c2=O)cc1 (centres unmarked) [Compound 134, N-[2-(4-methylsulfinylphenyl)phenyl]-4-oxo-1H-quinoline-3-carboxamide] |
| < 10 | + (<25%) | CC(C)(C)c1cc(C(C)(C)C)c(NC(=O)c2c[nH]c3c(C#N)cccc3c2=O)cc1O [Compound 505, 8-cyano-N-(5-hydroxy-2,4-ditert-butyl-phenyl)-4-oxo-1H-quinoline-3-carboxamide] |
| < 10 | +++ (>100%) | Cc1cc(N2CCCC2)ccc1NC(=O)c1c[nH]c2ccccc2c1=O [Compound 615, N-(2-methyl-4-pyrrolidin-1-yl-phenyl)-4-oxo-1H-quinoline-3-carboxamide] |
| < 10 | ++ (between 25% to 100%) | CC(C)(C)OC(=O)NCc1cc(NC(=O)c2c[nH]c3ccccc3c2=O)ccc1C(C)(C)C [Compound 465, [5-[(4-oxo-1H-quinolin-3-yl)carbonylamino]-2-tert-butyl-phenyl]methylaminoformic acid tert-butyl ester] |
| < 10 | ++ (between 25% to 100%) | CC(C)(C)c1cc(C(C)(C)C)c(NC(=O)c2c[nH]c3cccc(C(F)(F)F)c3c2=O)cc1O [Compound 520, N-(5-hydroxy-2,4-ditert-butyl-phenyl)-4-oxo-5-(trifluoromethyl)-1H-quinoline-3-carboxamide] |
| < 10 | ++ (between 25% to 100%) | CC(CO)(CO)c1ccc(NC(=O)c2c[nH]c3cccc(O)c3c2=O)cc1 [Compound 493, 5-hydroxy-N-[4-[2-hydroxy-1-(hydroxymethyl)-1-methyl-ethyl]phenyl]-4-oxo-1H-quinoline-3-carboxamide] |
| < 10 | ++ (between 25% to 100%) | CCOc1ccccc1-c1cc(C(C)(C)C)c(O)cc1NC(=O)c1c[nH]c2ccccc2c1=O [Compound 23, N-[2-(2-ethoxyphenyl)-5-hydroxy-4-tert-butyl-phenyl]-4-oxo-1H-quinoline-3-carboxamide] |
| < 10 | ++ (between 25% to 100%) | COc1cc(NC(=O)c2c[nH]c3ccccc3c2=O)c(C(F)(F)F)cc1C(C)(C)C [Compound 421, N-[5-methoxy-4-tert-butyl-2-(trifluoromethyl)phenyl]-4-oxo-1H-quinoline-3-carboxamide] |
| < 10 | ++ (between 25% to 100%) | Cc1cccc2[nH]cc(C(=O)Nc3ccc(N4C[C@@H]5CC[C@H]4C5)cc3C(F)(F)F)c(=O)c12 [Compound 582, N-(4-((1S,4R)-2-azabicyclo[2.2.1]heptan-2-yl)-2-(trifluoromethyl)phenyl)-5-methyl-4-oxo-1,4-dihydroquinoline-3-carboxamide] |
| < 10 | +++ (>100%) | C=C(C)c1ccccc1NC(=O)c1c[nH]c2ccccc2c1=O [Compound 445, N-(2-isopropenylphenyl)-4-oxo-1H-quinoline-3-carboxamide] |
| < 10 | ++ (between 25% to 100%) | O=C(Nc1ccccc1C(F)(F)F)c1c[nH]c2ccccc2c1=O [Compound 111, 4-oxo-N-[2-(trifluoromethyl)phenyl]-1H-quinoline-3-carboxamide] |
| < 10 | ++ (between 25% to 100%) | CC(C)(C)c1ccc(NC(=O)c2c[nH]c3ccccc3c2=O)cc1C#N [Compound 13, N-(3-cyano-4-tert-butyl-phenyl)-4-oxo-1H-quinoline-3-carboxamide] |
| < 10 | ++ (between 25% to 100%) | O=C(Nc1ccc2c(c1)OC(F)(F)C(F)(F)O2)c1c[nH]c2ccccc2c1=O [Compound 440, N-(2,2,3,3-tetrafluoro-2,3-dihydrobenzo[b][1,4]dioxin-6-yl)-1,4-dihydro-4-oxoquinoline-3-carboxamide] |
| < 10 | ++ (between 25% to 100%) | COc1ccc2[nH]cc(C(=O)Nc3ccc(N4CCC(C)(C)C4)cc3C(F)(F)F)c(=O)c2c1 [Compound 504, N-[4-(3,3-dimethylpyrrolidin-1-yl)-2-(trifluoromethyl)phenyl]-6-methoxy-4-oxo-1H-quinoline-3-carboxamide] |
| < 10 | ++ (between 25% to 100%) | CC1(c2ccc(NC(=O)c3c[nH]c4ccc(F)cc4c3=O)cc2)COC1 [Compound 521, 6-fluoro-N-[4-(3-methyloxetan-3-yl)phenyl]-4-oxo-1H-quinoline-3-carboxamide] |
